{"source": "patent US20140342025A1", "about": "“ARJUNOLIC ACID FOR INCREASING SEBUM PRODUCTION” (EVONIK INDUSTRIES AG, priority 2011, published 2014)", "test": "Percutaneous absorption study on a pig skin model", "format": "in vitro ADME", "settings": "arjunolic acid in combination with 1,2-pentanediol in cosmetic formulation vs. formulation without 1,2-pentanediol; FIG. 2", "procedure": "In practice, the study was performed in accordance with a current protocol, as described for example in S. Richert, A. Schrader, K. Schrader, Int. J. Cosmet. Sci. 2003, 25, 5-13.", "data": [{"smiles": "CC1(C)CC[C@]2(C(=O)O)CC[C@]3(C)C(=CC[C@@H]4[C@@]5(C)C[C@@H](O)[C@H](O)[C@@](C)(CO)[C@@H]5CC[C@]43C)[C@@H]2C1", "note": "[arjunolic acid]", "values": [{"measurement": "bioavailability (skin penetration) as a function of solvent", "result": "increase in bioavailability"}]}]}
